Data reported in patent publication US20040106135A1, “Assay for PPAR ligand dependent gene modulation” (priority 2002, published 2004).

How the values were obtained:
Assay type in all cases: cell-based, human
HK-2 cells = test: Transcriptional profiling by DNA microarray, HK-2 cells; conditions: 300 nM GW9578, 24 hours
Experimental: Points corresponding to PDK-4 and ADRP are highlighted in the plot. Points falling outside of the inner lines are changed by greater than 2-fold; those falling outside the outer lines by greater than 3-fold.
(§1) Expression profiling: Expression profiling of RNA samples was performed essentially as described (Lockhart et al., (1996) Nat. Biotechnol. 14:1675-80) using the Affymetrix human U95Av2 array. Briefly, RNA was isolated from 100 mm cell culture dishes, DNased, and 15 μg used as a template for double stranded cDNA synthesis according to standard protocols (Invitrogen). Reverse transcription was primed using a T7-modified oligo-dT primer (5-[…]-d(T)24-3′) (SEQ ID NO: 1). In vitro transcription was then performed on each double stranded cDNA synthesis, according to the manufacturer's (Enzo Diagnostics) instructions. The resultant cRNA products were purified using RNeasy columns (Qiagen), pooled, and quantitated spectrophotometrically. […]
(§2) Data Analysis: Affymetrix CEL files from GeneChip 4.0 (Affymetrix) were imported into Resolver 2.0 under an empirically derived Affymetrix error model (Rosetta Inpharmatics). […] Accordingly, the statistical significance (P-value) of a given expression data point takes into account the underlying error associated with the Affymetrix transcript abundance measurements as determined by this platform-specific error model. […]

Caki-1 cells = test: Transcriptional profiling by DNA microarray, Caki-1 cells
Experimental: as §1, with “spectrophotometrically. For each sample, 20 μg of in vitro transcribed cRNA was fragmented by heating the sample to 94° C. in the presence of 40 mM Tris-acetate, pH 8.1, 100 mM potassium acetate, and 30 mM magnesium acetate.” for “spectrophotometrically.”
as §2

LNCaP cells = test: Transcriptional profiling by DNA microarray, LNCaP cells
Experimental: as §1, with “spectrophotometrically. For each sample, 20 μg of in vitro transcribed cRNA was fragmented by heating the sample to 94° C. in the presence of 40 mM Tris-acetate, pH 8.1, 100 mM potassium acetate, and 30 mM magnesium acetate.” for “spectrophotometrically.”
as §2

ACHN cells = test: Transcriptional profiling by DNA microarray, ACHN cells
Source text: Threshold cutoffs were set at fold change >1.4; p<0.01; and statistically significant in at least 2 experiments. The genes fatty acid CoA ligase 2 (FACL2), palmitoyl acyl-CoA oxidase 1 (ACOX1), and carnitine palmitoyl acyl-CoA transferase (CPT1A) are included for comparison based on published reports that they are PPARα responsive genes in HepG2 cells over expressing PPARα (Hsu et al., (2001) J. Biol. Chem. 276:27950-8; Lawrence et al., (2001) J. Biol. Chem. 276:31521-7).
Expression profiling: Expression profiling of RNA samples was performed essentially as described (Lockhart et al., (1996) Nat. Biotechnol. 14:1675-80) using the Affymetrix human U95Av2 array. Briefly, RNA was isolated from 100 mm cell culture dishes, DNased, and 15 μg used as a template for double stranded cDNA synthesis according to standard protocols (Invitrogen). […] The resultant cRNA products were purified using RNeasy columns (Qiagen), pooled, and quantitated spectrophotometrically. […]
as §2

## CCCCCCCN(CCc1ccc(SC(C)(C)C(=O)O)cc1)C(=O)Nc1ccc(F)cc1F [GW9578, ureido-thioisobutyric acid]
HK-2 cells
  Increase of ADRP transcript versus controls: approximately 4 fold
  Increase of PDK-4 transcript versus controls: approximately 4 fold
Caki-1 cells
  Changes in gene expression in Caki-1 cells: only minor changes
LNCaP cells
  Changes in gene expression in LNCaP cells: only minor changes
ACHN cells
  ADRP induction in ACHN cells: significantly induced
